Data taken from patent publication US10829478B2, “5-[3-[piperazin-1-yl]-3-oxo-propyl]-imidazolidine-2,4-dione derivatives as ADAMTS 4 and 5 inhibitors for treating e.g. osteoarthritis” (Galapagos NV, priority 2016, dated 2020).
Where two headings read alike, the source gives them in different places.

Legend:
[1] = target: human MMP14 (Homo sapiens (Human), UniProt P50281); assay: hMMP14 assay (390 MMP FRET Substrate I); type: biochemical; details: human MMP14 (Biomol), read-out: hMMP-14 potency IC50
Experimental: The basis for the assay is the cleavage of the substrate 390 MMP FRET Substrate I (Anaspec Cat #AS-27076) by human MMP14 (Biomol, Cat #SE-259).
The reaction is initiated by adding to the assay plate 390 MMP FRET Substrate I (10 μL, 2.5 μM) in the same buffer.
Finally, the fluorescence is read on the Envision (Perkin Elmer) after an incubation of 60 min at room temperature (Excitation 485 nm, Emission 530).

[2] = target: human ADAMTS4 (Homo sapiens (Human), UniProt O75173); assay: hADAMTS-4 TBIS-1 cleavage assay, Protocol 2; type: biochemical
Chain of human ADAMTS4 (O75173 213-837): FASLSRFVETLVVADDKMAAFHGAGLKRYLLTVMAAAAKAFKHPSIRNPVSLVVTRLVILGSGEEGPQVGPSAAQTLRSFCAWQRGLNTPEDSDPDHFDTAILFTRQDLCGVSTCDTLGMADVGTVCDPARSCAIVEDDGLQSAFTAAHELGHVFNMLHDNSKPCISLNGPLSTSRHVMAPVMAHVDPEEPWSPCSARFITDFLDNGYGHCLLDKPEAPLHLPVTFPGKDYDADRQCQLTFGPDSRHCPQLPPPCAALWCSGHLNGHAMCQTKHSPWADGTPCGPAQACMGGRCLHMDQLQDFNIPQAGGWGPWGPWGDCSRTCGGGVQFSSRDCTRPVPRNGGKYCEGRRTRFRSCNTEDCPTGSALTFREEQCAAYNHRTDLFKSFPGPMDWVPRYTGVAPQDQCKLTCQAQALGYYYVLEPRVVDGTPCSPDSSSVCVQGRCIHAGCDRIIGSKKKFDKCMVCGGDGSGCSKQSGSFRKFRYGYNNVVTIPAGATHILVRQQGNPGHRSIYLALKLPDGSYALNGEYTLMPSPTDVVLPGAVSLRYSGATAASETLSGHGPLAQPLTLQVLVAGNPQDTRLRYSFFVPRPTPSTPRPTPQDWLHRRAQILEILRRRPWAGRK

[3] = target: human ADAMTS-5 (Homo sapiens (Human), UniProt Q9UNA0); assay: hADAMTS-5 TBIS-1 cleavage assay, Protocol 3; type: biochemical; details: 90 min at 37° C., read-out: hADAMTS-5 potency IC50
Chain of human ADAMTS-5 (Q9UNA0 262-930): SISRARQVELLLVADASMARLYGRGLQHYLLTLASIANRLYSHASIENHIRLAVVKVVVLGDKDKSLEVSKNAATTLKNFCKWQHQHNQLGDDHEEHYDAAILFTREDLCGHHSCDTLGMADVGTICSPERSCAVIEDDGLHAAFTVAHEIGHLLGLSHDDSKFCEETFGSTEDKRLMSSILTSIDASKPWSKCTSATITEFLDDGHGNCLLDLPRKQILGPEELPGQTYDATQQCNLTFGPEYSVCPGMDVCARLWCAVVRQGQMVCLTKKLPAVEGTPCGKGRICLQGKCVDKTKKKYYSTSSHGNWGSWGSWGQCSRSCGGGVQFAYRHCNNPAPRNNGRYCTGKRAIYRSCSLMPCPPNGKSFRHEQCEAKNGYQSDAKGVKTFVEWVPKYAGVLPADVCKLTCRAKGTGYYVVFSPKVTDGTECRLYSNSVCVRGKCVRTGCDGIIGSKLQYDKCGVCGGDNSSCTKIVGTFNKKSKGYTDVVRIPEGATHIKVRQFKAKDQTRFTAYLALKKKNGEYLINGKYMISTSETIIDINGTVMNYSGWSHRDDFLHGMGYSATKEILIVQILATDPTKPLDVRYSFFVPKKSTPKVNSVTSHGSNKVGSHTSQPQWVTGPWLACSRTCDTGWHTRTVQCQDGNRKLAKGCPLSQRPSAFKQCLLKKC
Experimental: The reaction is initiated by adding to the assay plate TBIS-1 (10 μL, 4.5 μM, Anaspec) in the same buffer.
Finally, the fluorescence is read on the Envision (Perkin Elmer) after an incubation of 90 min at 37° C. (Excitation 485 nm, emission 530).

[4] = target: human MMP13 (Homo sapiens (Human), UniProt P45452); assay: hMMP13 assay, Protocol 1 (390 MMP FRET Substrate I, Chemicon enzyme); type: biochemical; details: Protocol 1, human MMP13 (Chemicon), read-out: hMMP-13 potency IC50
Experimental: Human MMP13 is preactivated by incubated the enzyme in the same buffer complemented with 1 mM freshly prepared p-Aminophenylmercuric acetate (AMPA) for 1 h at 37° C.

[5] = target: rnADAMTS-5 (1-564-6H) (Rattus norvegicus (Rat), UniProt Q6TY19); assay: Rat ADAMTS-5 TBIS-1 cleavage assay; type: biochemical; details: 120 min at 37° C.; read-out: Rat ADAMTS-5 potency IC50
Chain of rnADAMTS-5 (1-564-6H) (Q6TY19 entry or part of it): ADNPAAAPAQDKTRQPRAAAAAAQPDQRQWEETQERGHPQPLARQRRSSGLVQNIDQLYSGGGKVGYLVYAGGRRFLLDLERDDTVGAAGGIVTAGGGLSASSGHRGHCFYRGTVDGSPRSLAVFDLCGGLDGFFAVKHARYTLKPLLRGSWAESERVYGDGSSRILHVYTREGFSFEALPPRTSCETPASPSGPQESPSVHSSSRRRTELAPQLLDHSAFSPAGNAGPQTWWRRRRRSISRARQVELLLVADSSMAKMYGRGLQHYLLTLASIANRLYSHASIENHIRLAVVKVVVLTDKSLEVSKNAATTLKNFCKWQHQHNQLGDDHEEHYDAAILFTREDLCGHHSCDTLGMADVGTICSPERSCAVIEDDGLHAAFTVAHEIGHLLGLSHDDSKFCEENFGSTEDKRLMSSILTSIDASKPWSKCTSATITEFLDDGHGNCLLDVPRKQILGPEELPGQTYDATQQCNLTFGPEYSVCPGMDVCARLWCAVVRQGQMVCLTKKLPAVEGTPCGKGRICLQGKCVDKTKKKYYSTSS

[6] = target: human ADAMTS6 (Homo sapiens (Human), UniProt Q9UKP5); assay: hADAMTS-6 fluorescent based protease assay (520 MMP FRET substrate XII); type: biochemical; details: 37° C. for 2 h; read-out: hADAMTS-6 potency IC50
Chain of human ADAMTS6 (Q9UKP5 other isoform, or with tags, fused parts or gaps): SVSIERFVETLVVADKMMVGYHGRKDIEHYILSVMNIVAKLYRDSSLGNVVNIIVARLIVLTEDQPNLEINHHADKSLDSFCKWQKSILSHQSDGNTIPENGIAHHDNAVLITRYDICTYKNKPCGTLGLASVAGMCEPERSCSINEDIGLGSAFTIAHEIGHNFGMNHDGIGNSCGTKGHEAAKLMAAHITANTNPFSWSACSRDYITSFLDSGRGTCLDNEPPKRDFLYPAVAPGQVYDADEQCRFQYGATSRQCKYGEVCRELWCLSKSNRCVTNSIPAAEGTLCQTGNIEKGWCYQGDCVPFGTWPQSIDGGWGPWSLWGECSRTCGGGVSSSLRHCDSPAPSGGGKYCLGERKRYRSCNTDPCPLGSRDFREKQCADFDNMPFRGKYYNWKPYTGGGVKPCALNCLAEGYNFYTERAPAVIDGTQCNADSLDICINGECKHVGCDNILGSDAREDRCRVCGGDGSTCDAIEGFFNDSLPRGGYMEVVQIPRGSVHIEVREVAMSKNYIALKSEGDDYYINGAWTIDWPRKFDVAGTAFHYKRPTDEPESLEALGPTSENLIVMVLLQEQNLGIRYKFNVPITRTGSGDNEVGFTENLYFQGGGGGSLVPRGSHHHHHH
In short: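 ADAMTS6 (0.73 nM final) in 25 mM Tris pH 8.0, 0.05% CHAPS, 2.5 mM CaCl2 with compound dilution series (top 20 μM, 1/5 steps). Reaction started with 520 MMP FRET Substrate XII, incubated 2 h at 37 °C. Substrate cleavage read by fluorescence ex485/em530; IC50 determined.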

[7] = target: human TACE (Homo sapiens (Human), UniProt P78536); assay: biochemical
Chain of human TACE (P78536 215-671): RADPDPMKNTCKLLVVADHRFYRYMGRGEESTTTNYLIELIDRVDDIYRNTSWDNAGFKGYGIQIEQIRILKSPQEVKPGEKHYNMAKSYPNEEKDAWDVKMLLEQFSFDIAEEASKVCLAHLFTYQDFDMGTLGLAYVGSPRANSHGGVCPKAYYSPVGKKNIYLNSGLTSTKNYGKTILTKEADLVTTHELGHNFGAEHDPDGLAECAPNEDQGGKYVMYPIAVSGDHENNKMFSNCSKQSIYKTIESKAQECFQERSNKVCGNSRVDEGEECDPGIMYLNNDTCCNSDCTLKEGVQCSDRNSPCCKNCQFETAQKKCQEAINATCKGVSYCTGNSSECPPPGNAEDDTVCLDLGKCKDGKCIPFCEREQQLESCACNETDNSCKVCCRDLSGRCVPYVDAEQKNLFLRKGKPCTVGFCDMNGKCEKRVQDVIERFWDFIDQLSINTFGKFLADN
Experimental: Finally, the fluorescence is read on the Envision (Perkin Elmer) after an incubation of 75 min at room temperature (Excitation 485 nm, Emission 530).

[8] = Protocol 2, 180 min at 37° C., read-out: ADAMTS4 potency IC50

Compound	IC50 [3] [nM]	IC50 [4] [nM]	IC50 [5] [nM]	IC50 [6] [nM]	IC50 [7] [nM]	IC50 [2, 8] [nM]	IC50 [1] [nM]	IC50 [2] [nM]
COc1cc(N2CCN(C(=O)[C@@H](C)C[C@@]3(C)NC(=O)NC3=O)C[C@@H]2C)cc(F)c1F (mixture of isomers) [Cpd 42, 5-[3-[(3S)-4-(3,4-difluoro-5-methoxy-phenyl)-3-methyl-piperazin-1-yl]-2-methyl-3-oxo-propyl]-5-methyl-imidazolidine-2,4-dione]	0.001 to 25	> 100	0.001 to 25	0.001 to 25	> 100	–	> 100	25 to 50
COc1cc(N2CCN(C(=O)[C@@H](C)C[C@@]3(C)NC(=O)NC3=O)C[C@@H]2C)ccc1Cl (stereo in doubt) [Cpd 41, 5-[3-[4-(4-chloro-3-methoxy-phenyl)-3-methyl-piperazin-1-yl]-2-methyl-3-oxo-propyl]-5-methyl-imidazolidine-2,4-dione]	25 to 50	> 100	0.001 to 25	0.001 to 25	> 100	> 100	> 100	–
COc1cc(N2CCN(C(=O)[C@@H](C)C[C@@]3(C)NC(=O)NC3=O)CC2)cc(F)c1F (stereo in doubt) [Cpd 43, 5-[3-[4-(3,4-difluoro-5-methoxy-phenyl)piperazin-1-yl]-2-methyl-3-oxo-propyl]-5-methyl-imidazolidine-2,4-dione]	0.001 to 25	> 100	0.001 to 25	0.001 to 25	> 100	–	> 100	25 to 50
COc1cc(F)cc(N2CCN(C(=O)[C@@H](C)C[C@@]3(C)NC(=O)NC3=O)CC2)c1 [Cpd 27, (5R)-5-[(2S)-3-[4-(3-fluoro-5-methoxy-phenyl)piperazin-1-yl]-2-methyl-3-oxo-propyl]-5-methyl-imidazolidine-2,4-dione]	25 to 50	> 100	25 to 50	0.001 to 25	> 100	–	–	25 to 50
COc1cc(N2CCN(C(=O)CCC3(c4cccnc4)NC(=O)NC3=O)CC2)cc(F)c1F (stereo not shown) [Cpd 28, 5-[3-[4-(3,4-difluoro-5-methoxy-phenyl)piperazin-1-yl]-3-oxo-propyl]-5-(3-pyridyl)imidazolidine-2,4-dione]	> 100	> 100	50 to 100	25 to 50	> 100	> 100	–	–
COc1cc(N2CCN(C(=O)[C@@H](C)C[C@@]3(C4CC4)NC(=O)NC3=O)C[C@@H]2C)cc(F)c1F [Cpd 29, 5-cyclopropyl-5-[(2S)-3-[(3S)-4-(3,4-difluoro-5-methoxy-phenyl)-3-methyl-piperazin-1-yl]-2-methyl-3-oxo-propyl]imidazolidine-2,4-dione]	25 to 50	> 100	25 to 50	0.001 to 25	> 100	–	–	25 to 50
COc1cc(N2CCN(C(=O)CCC3(C)NC(=O)NC3=O)CC2)cc(OC)c1Cl (stereo not shown) [Cpd 31, 5-[3-[4-(4-chloro-3,5-dimethoxy-phenyl)piperazin-1-yl]-3-oxo-propyl]-5-methyl-imidazolidine-2,4-dione]	> 100	> 100	> 100	0.001 to 25	> 100	> 100	–	–
COc1cc(N2CCN(C(=O)CCC3(C)NC(=O)NC3=O)C[C@@H]2C)c(C)cc1Cl (stereo partly shown) [Cpd 36, 5-[3-[(3 S)-4-(4-chloro-5-methoxy-2-methyl-phenyl)-3-methyl-piperazin-1-yl]-3-oxo-propyl]-5-methyl-imidazolidine-2,4-dione]	> 100	> 100	> 100	25 to 50	> 100	> 100	–	–
COc1cc(N2CCN(C(=O)CCC3(C)NC(=O)NC3=O)C[C@@H]2C)cc(F)c1Cl (stereo partly drawn) [Cpd 39, 5-[3-[(3S)-4-(4-chloro-3-fluoro-5-methoxy-phenyl)-3-methyl-piperazin-1-yl]-3-oxo-propyl]-5-methyl-imidazolidine-2,4-dione]	50 to 100	> 100	50 to 100	0.001 to 25	> 100	> 100	–	–
COc1cc(N2CCN(C(=O)CC[C@H]3NC(=O)NC3=O)C[C@@H]2C)ccc1Cl [Cpd 133, (5R)-5-[3-[(3 S)-4-(4-chloro-3-methoxy-phenyl)-3-methyl-piperazin-1-yl]-3-oxo-propyl]imidazolidine-2,4-dione]	> 100	> 100	> 100	0.001 to 25	> 100	> 100	–	–
COc1cc(N2CCN(C(=O)CC[C@H]3NC(=O)NC3=O)CC2)cc(OC)c1Cl [Cpd 135, (5R)-5-[3-[4-(4-chloro-3,5-dimethoxy-phenyl)piperazin-1-yl]-3-oxo-propyl]imidazolidine-2,4-dione]	> 100	> 100	> 100	0.001 to 25	> 100	> 100	–	–
COc1cc(N2CCN(C(=O)CC[C@H]3NC(=O)NC3=O)CC2)c(C)cc1Cl [Cpd 138, (5R)-5-[3-[4-(4-chloro-5-methoxy-2-methyl-phenyl)piperazin-1-yl]-3-oxo-propyl]imidazolidine-2,4-dione]	> 100	> 100	> 100	> 100	> 100	> 100	–	–
COc1cc(N2CCN(C(=O)CC[C@H]3NC(=O)NC3=O)C[C@@H]2C)cc(OC)c1Cl [Cpd 139, (5R)-5-[3-[(3 S)-4-(4-chloro-3,5-dimethoxy-phenyl)-3-methyl-piperazin-1-yl]-3-oxo-propyl]imidazolidine-2,4-dione]	> 100	> 100	50 to 100	0.001 to 25	> 100	> 100	–	–
COc1cc(N2CCN(C(=O)CC[C@H]3NC(=O)NC3=O)C[C@@H]2C)cc(F)c1Cl [Cpd 144, (5R)-5-[3-[(3 S)-4-(4-chloro-3-fluoro-5-methoxy-phenyl)-3-methyl-piperazin-1-yl]-3-oxo-propyl]imidazolidine-2,4-dione]	50 to 100	> 100	50 to 100	0.001 to 25	> 100	> 100	–	–

Second part, led by results:

IC50 [3] [nM]	IC50 [4] [nM]	IC50 [5] [nM]	IC50 [6] [nM]	IC50 [7] [nM]	IC50 [2, 8] [nM]	Compound	IC50 [1] [nM]	IC50 [2] [nM]
25 to 50	> 100	50 to 100	0.001 to 25	> 100	> 100	COc1cc(N2CCN(C(=O)CCC3(C)NC(=O)NC3=O)C[C@@H]2C)ccc1Cl (stereo partly drawn) [Cpd 24, 5-[3-[(3S)-4-(4-chloro-3-methoxy-phenyl)-3-methyl-piperazin-1-yl]-3-oxo-propyl]-5-methyl-imidazolidine-2,4-dione]	> 100	–
> 100	> 100	> 100	0.001 to 25	> 100	> 100	COc1cc(N2CCN(C(=O)CCC3(C)NC(=O)NC3=O)C[C@@H]2C)cc(OC)c1Cl (stereo partly shown) [Cpd 30, 5-[3-[(3 S)-4-(4-chloro-3,5-dimethoxy-phenyl)-3-methyl-piperazin-1-yl]-3-oxo-propyl]-5-methyl-imidazolidine-2,4-dione]	–	–
> 100	> 100	> 100	25 to 50	> 100	> 100	COc1cc(N2CCN(C(=O)CCC3(C)NC(=O)NC3=O)CC2)c(C)cc1Cl (stereo not shown) [Cpd 34, 5-[3-[4-(4-chloro-5-methoxy-2-methyl-phenyl)piperazin-1-yl]-3-oxo-propyl]-5-methyl-imidazolidine-2,4-dione]	–	–
> 100	> 100	50 to 100	0.001 to 25	> 100	> 100	COc1cc(N2CCN(C(=O)CCC3(C)NC(=O)NC3=O)CC2)cc(F)c1Cl (stereo not shown) [Cpd 38, 5-[3-[4-(4-chloro-3-fluoro-5-methoxy-phenyl)piperazin-1-yl]-3-oxo-propyl]-5-methyl-imidazolidine-2,4-dione]	–	–
> 100	> 100	> 100	0.001 to 25	> 100	> 100	COc1cc(N2CCN(C(=O)CC[C@H]3NC(=O)NC3=O)C[C@@H]2C)cc(F)c1F [Cpd 129, (5R)-5-[3-[(3S)-4-(3,4-difluoro-5-methoxy-phenyl)-3-methyl-piperazin-1-yl]-3-oxo-propyl]imidazolidine-2,4-dione]	–	–
> 100	> 100	> 100	25 to 50	> 100	> 100	COc1cc(OC)cc(N2CCN(C(=O)CC[C@H]3NC(=O)NC3=O)C[C@@H]2C)c1 [Cpd 132, (5R)-5-[3-[(3 S)-4-(3,5-dimethoxyphenyl)-3-methyl-piperazin-1-yl]-3-oxo-propyl]imidazolidine-2,4-dione]	–	–
> 100	> 100	> 100	50 to 100	> 100	> 100	COc1cc(N2CCN(C(=O)CC[C@H]3NC(=O)NC3=O)C[C@@H]2C)c(C)cc1Cl [Cpd 142, (5R)-5-[3-[(3S)-4-(4-chloro-5-methoxy-2-methyl-phenyl)-3-methyl-piperazin-1-yl]-3-oxo-propyl]imidazolidine-2,4-dione]	–	–
